Test results from PMC6062979 (BMC Complementary and Alternative Medicine, 2018).
In brackets after ≈: the same amount, converted by molar mass. Entries after “also recorded” stand apart in the source; their conditions may differ.

Tests used:
T. cruzi Epi [1] = assay: Anti-parasitic activity on T. cruzi epimastigotes (Trypan Blue differential count); settings: for IC50: Trypanosoma cruzi, read-out: Epi IC50 ± SD, epimastigotes, 72 h; for IC50 / Epi IC50 ± SD: 72 h; for Epi SI (CC50/IC50): Vero CC50 / epimastigote IC50; for Epi IC50 ± SD: epimastigotes
Description: (§1) Vero lineage derived from African Green Monkey Kidney (Vero, ATCC CCL-81) was used for selectivity index determination and for Tryp and Amas production. These cells were grown on DMEM (Life Technology, CA, USA) media, pH: 7.4; supplemented with 10% of inactivated Fetal Bovine Serum (FBSi), 1000 U/mL of penicillin, and 100 μg/mL of streptomycin; and incubated at 37 °C with 90% humidity and a 5% CO2 atmosphere. Epi of T. cruzi I (TcI) SYLVIO-X10 strain, were donated by Dr. Marcos López-Casillas, from Fundación Cardiovascular de Colombia and grown in LIT medium (Merck) supplemented with 10% FBSi, and incubated at 28 °C. The Trypomastigotes Derived from Cells (TDC) were obtained by infection of a confluent monolayer of Vero cells with 12 day-old stationary growth phase Epi and incubated under the same conditions described above for Vero cells.
(§2) T. cruzi Epi (5 × 10^5 Epi/mL) and TDC (5 × 10^5 cells/mL) in the exponential growth phase were plated in a 96-well standard microplate in LIT medium (at 28 °C) and in D-MEM medium (at 37 °C in a 5% CO2 atmosphere), respectively. Both cultures were supplemented with 10% FBSi. For the trypanocidal assays, the EOs or their terpenes were added at varying concentrations (3.7 to 100 μg/mL) and incubated at the same culture conditions for 72 (Epi) or 24 h (Tryp). The growth inhibition was estimated by light microscopy through a differential count using the Trypan Blue (Gibco) dye exclusion technique. […] For Amas assays, a monolayer of Vero cells (3 × 10^5 cel/mL) was infected with TDC in a 1:3 cell:parasite ratio and incubated for 24 h until Amas development occurred. Then, these intracellular forms were exposed for 120 h to EOs or terpenes in a treatment applied in two doses (at 0 and 48 h), under the same conditions described above. Growth inhibition analysis was assessed in Giemsa-stained films using light microscopy to determine the infected and uninfected cell percentage in a total of 300 cells. Cells without treatment and those treated with BNZ were used as negative and positive controls, respectively.

T. cruzi Tryp (TDC) = assay: Anti-parasitic activity on T. cruzi trypomastigotes derived from cells (Trypan Blue differential count); settings: for IC50: Trypanosoma cruzi, read-out: Tryp IC50 SD, trypomastigotes, 24 h; for IC50 / Tryp IC50 SD: 24 h; for Tryp SI (CC50/IC50): Vero CC50 / trypomastigote IC50; for Tryp IC50 SD: trypomastigotes
Description: as §1, §2

T. cruzi Amas = assay: Anti-parasitic activity on intracellular T. cruzi amastigotes in Vero cells (Giemsa count); format: cell-based, Trypanosoma cruzi; settings: for IC50: Trypanosoma cruzi, Vero, read-out: Amas IC50 ± SD; for IC50 / Amas IC50 ± SD: intracellular amastigotes in Vero, 120 h, two doses (0 and 48 h); for Amas SI (CC50/IC50): Vero CC50 / amastigote IC50
Description: as §1, §2

[2] = Cytotoxic activity on Vero cells (WST-1); settings: African green monkey, pH 7.4
Description: as §1
(§3) Vero cells (3 × 10^5 cel/mL) were incubated at 37 °C in a 5% CO2 atmosphere and at 95% humidity for 24 h to ensure the formation of a confluent monolayer. After this time, the cells were treated with the EOs or their terpenes in four different concentrations (11.1, 33.3, 100, and 300 μg/mL). Thereafter, the lineages were incubated for 70 h at 37 °C in a 5% CO2 atmosphere and re-incubated 2 more hours with WST-1 (Roche, Mannheim, Germany), after which Optical Density (OD) measurements were analyzed by spectrophotometry. The cytotoxicity percentage was calculated using [(OD450nm Control – OD450nm treatment) / […])] × 100. The results were expressed as Cytotoxic Concentration 50 (CC50).

T. cruzi Epi [3] = assay: Morphological analysis by optical and fluorescent microscopy (DIC, DAPI, MitoTracker); format: cell-based, Trypanosoma cruzi; settings: 2xIC50, 48 h
Description: (§4) The death phenotype was analyzed by optical and fluorescent microscopy using phase contrast (fluorescence microscopy, Nikon Eclipse Ni). […] Determination of an oligonucleosomal-DNA ladder in treated parasites was also evaluated through DNA gel electrophoresis. Evaluation of the mitochondrial potential membrane in living parasites was performed with MitoTracker Red CMXRos (579 nm/599 nm […] wavelength). As a positive and negative apoptosis control, a 15 day-old Epi culture and an untreated fresh parasite culture were used, respectively.

Vero cells = assay: Cytotoxic activity on Vero cells (WST-1); settings: Vero cells, 72 h, WST-1
Description: as §1, §3

T. cruzi Epi [4] = assay: DNA fragmentation by TUNEL assay on epimastigotes; format: cell-based, Trypanosoma cruzi; settings: for DNA fragmentation (positive TUNEL) percentage: Epi, 48 h, 2xIC50; for TUNEL assay result: treated parasites
Description: as §4

T. cruzi Epi [5] = assay: Flow cytometry Annexin V / SYTOX Green cell death analysis on epimastigotes; format: cell-based, Trypanosoma cruzi; settings: 48 h at 2xIC50, flow cytometry
Description: For cell death characterization, an Annexin V/Dead with SYTOX® Green (Molecular Probes, Invitrogen) kit was used following the procedure specified in the manufacturer’s instructions. The phosphatidylserine externalization was determined by employing a recombinant Annexin V conjugated to the Orange Fluorescent phycobiliprotein R-PE, and to the necrotic cells using SYTOX™ Green nucleic acid stain. Briefly, 1 × 10^6 Epi per mL were treated with 2xIC50 for 48 h, washed, and suspended in 1X Annexin-Binding Buffer.

[6] = Vero cells (ATCC CCL-81), kidney

Compound	IC50 (T. cruzi Epi [1]) [µg/mL]	Epi SI (CC50/IC50) (T. cruzi Epi [1])	IC50 (T. cruzi Tryp (TDC)) [µg/mL]	Tryp SI (CC50/IC50) (T. cruzi Tryp (TDC))	IC50 (T. cruzi Amas) [µg/mL]	Amas SI (CC50/IC50) (T. cruzi Amas)	Amas IC50 ± SD (T. cruzi Amas) [µg/mL]	CC50 at 72 h [2, 6] [µg/mL]	morphological changes of treated parasites (T. cruzi Epi [3])	Tryp IC50 SD (T. cruzi Tryp (TDC)) [µg/mL]	Vero CC50 ± SD (Vero cells) [µg/mL]	DNA fragmentation (positive TUNEL) percentage (T. cruzi Epi [4]) [%]	TUNEL assay result (T. cruzi Epi [4])	percentage of cell death (T. cruzi Epi [5]) [%]	Epi IC50 ± SD (T. cruzi Epi [1]) [µg/mL]	also measured
C=C(C)[C@H]1CC=C(C)C(=O)C1 [Carvone, S (+) carvone]	177 ± 7.9 (≈ 1180 µM)	1.4	124 ± 8 (≈ 825 µM)	1.9	> 100	–	–	–	–	–	–	–	–	–	–	CC50 at 72 h [2]: 240 ± 4.1 µg/mL (≈ 1600 µM)
O=C(Cn1ccnc1[N+](=O)[O-])NCc1ccccc1 [BNZ, Benznidazole, reference compound]	17 ± 0.9 (≈ 65.3 µM)	8.2	1.2 ± 0.1 (≈ 4.61 µM)	116.3	6 ± 0.9 (≈ 23.1 µM)	22.4	6.2 ± 0.9	139 ± 2.3 (≈ 534 µM)	cellular edema and loss of cellular membrane integrity, but with conserved mitochondrial energetic potential	–	–	–	–	–	–	–
C=C(C)[C@H]1CC=C(C)CC1 [Limonene, D (+) limonene]	–	–	–	–	–	–	29 ± 0.7	–	typical characteristics of apoptosis	9 ± 0.8	297 ± 2.4	94	positive	89.2	–	Amas IC50 ± SD (T. cruzi Amas; listed as limonene): 28.7 µg/mL
(−) caryophyllene oxide [CarOx]	–	4.3	–	5.9	–	2.7	47 ± 1.0	–	flagellum to be lost; also recorded: typical characteristics of apoptosis	22 ± 0.3	128 ± 4.2	99	positive	95.7	30 ± 1.7	cell death percentage (CDP) on Epi (T. cruzi Epi [1]; at 50 μg/mL): 78 ± 2.3%; Epi IC50 ± SD (T. cruzi Epi [1]; listed as caryophyllene oxide): 29.8 µg/mL; cell death percentage (CDP) on Tryp (T. cruzi Tryp (TDC); at 50 μg/mL): 98 ± 0.5%; Tryp IC50 SD (T. cruzi Tryp (TDC); listed as caryophyllene oxide): 21.6 µg/mL; Amas IC50 ± SD (T. cruzi Amas; listed as caryophyllene oxide): 47.4 µg/mL
CC(C)=CCCC(C)=CC=O (mixture of isomers) [Citral, citral]	37.2	2.4	20.8	4.3	49 ± 2.3	1.8	–	90 ± 3.9	typical characteristics of apoptosis	21 ± 1	–	–	–	78.4	37 ± 0.7	–
